Data from patent US5045302A, “Ligands and cationic complexes thereof with technetium-99m” (priority 1988, dated 1991).

Test: Rat biodistribution of Tc-99m complexes

SMILES | Blood (2 min p.i.) [% Injected dose/organ] | Heart (2 min p.i.) [% Injected dose/organ] | Heart/Blood Counts/Gram Ratio (2 min p.i.) | Heart/Liver Counts/Gram Ratio (2 min p.i.) | Liver (2 min p.i.) [% Injected dose/organ] | Blood (60 min p.i.) [% Injected dose/organ] | Heart (60 min p.i.) [% Injected dose/organ] | Heart/Blood Counts/Gram Ratio (60 min p.i.) | Heart/Liver Counts/Gram Ratio (60 min p.i.) | Liver (60 min p.i.) [% Injected dose/organ]
CCOCCP(CCOCC)CC(CP(CCOCC)CCOCC)OC [Compound 36] | 10.8 | 1.05 | 1.45 | 0.73 | 18.8 | 2.18 | 0.73 | 5.69 | 1.62 | 6.64
CCOCCCP(CCOC)CCP(CCCOCC)CCOC (centres unmarked) [Compound 30] | 9.52 | 0.73 | 1.14 | 1.28 | 7.69 | 0.34 | 0.70 | 27.4 | 4.24 | 1.89
CCOCCOCCP(CCOCCOCC)CCP(CCOCCOCC)CCOCCOCC [Compound 8] | 11.0 | 0.54 | 0.72 | 0.41 | 19.0 | 1.69 | 0.42 | 4.0 | 0.46 | 12.0
CCOCP(CCP(COCC)COCC)COCC [Compound 5] | 12.4 | 0.54 | 0.68 | 0.20 | 33.1 | 1.63 | 0.27 | 2.6 | 0.37 | 8.85
C1COC(CP(CCP(CC2CCCO2)CC2CCCO2)CC2CCCO2)C1 (centres unmarked) [Compound 24] | 3.92 | 1.82 | 6.98 | 1.74 | 16.4 | 0.55 | 1.42 | 39.7 | 2.62 | 8.56
CCOC=CP(C=COCC)CCP(C=COCC)C=COCC [Compound 6] | 15.6 | 0.58 | 0.61 | 0.18 | 44.3 | 3.26 | 0.46 | 2.2 | 0.19 | 30.6
C1CC(CP(CCP(CC2CCOCC2)CC2CCOCC2)CC2CCOCC2)CCO1 [Compound 25] | 18.10 | 0.40 | 0.34 | 0.94 | 5.74 | 1.51 | 0.04 | 0.41 | 0.34 | 1.60
CCOCP(CCCP(COCC)COCC)COCC [Compound 33] | 17.9 | 0.50 | 0.43 | 0.16 | 39.4 | 3.20 | 0.29 | 1.3 | 0.29 | 11.4
CCOCCCP(CCCOCC)CCP(CCCOCC)CCCOCC [Compound 4] | 7.46 | 1.00 | 1.96 | 0.81 | 18.8 | 0.73 | 0.96 | 20.0 | 2.13 | 6.96
FC(F)(F)COCCCP(CCCOCC(F)(F)F)CCP(CCCOCC(F)(F)F)CCCOCC(F)(F)F [Compound 10] | 40.5 | 0.43 | 0.17 | 0.16 | 35.2 | 7.59 | 0.14 | 0.3 | 0.04 | 48.8
CC1(C)OCC(CP(CCP(CC2COC(C)(C)O2)CC2COC(C)(C)O2)CC2COC(C)(C)O2)O1 (centres unmarked) [Compound 22] | 10.4 | 0.99 | 1.20 | 0.79 | 15.7 | 1.23 | 1.00 | 12.3 | 3.99 | 3.41
C1COC(CP(CCCP(CC2CCCO2)CC2CCCO2)CC2CCCO2)C1 (centres unmarked) [Compound 35] | 10.5 | 0.59 | 0.88 | 0.28 | 28.2 | 1.44 | 0.32 | 3.8 | 0.46 | 10.7

Further lines, results first:

Blood (2 min p.i.) [% Injected dose/organ] | Heart (2 min p.i.) [% Injected dose/organ] | Heart/Blood Counts/Gram Ratio (2 min p.i.) | Heart/Liver Counts/Gram Ratio (2 min p.i.) | Liver (2 min p.i.) [% Injected dose/organ] | Blood (60 min p.i.) [% Injected dose/organ] | Heart (60 min p.i.) [% Injected dose/organ] | Heart/Blood Counts/Gram Ratio (60 min p.i.) | Heart/Liver Counts/Gram Ratio (60 min p.i.) | Liver (60 min p.i.) [% Injected dose/organ] | SMILES
6.88 | 1.21 | 3.05 | 0.84 | 25.0 | 1.22 | 0.99 | 13.4 | 1.21 | 12.4 | CCOCCP(CCOC(C)C)CCP(CCOCC)CCOC(C)C (centres unmarked) [Compound 31]
18.8 | 0.46 | 0.37 | 1.29 | 3.27 | 0.88 | 0.03 | 0.6 | 0.76 | 0.67 | COC(CCP(CCC(OC)OC)CCP(CCC(OC)OC)CCC(OC)OC)OC [Compound 19]
12.2 | 0.62 | 0.70 | 1.01 | 8.22 | 0.67 | 0.51 | 9.4 | 2.48 | 2.24 | COC(C)CCP(CCC(C)OC)CCP(CCC(C)OC)CCC(C)OC (centres unmarked) [Compound 15]
9.0 | 0.82 | 1.62 | 1.28 | 11.0 | 0.73 | 0.69 | 15.5 | 3.93 | 2.94 | CCOCCP(CCOC)CCP(CCOC)CCOCC (centres unmarked) [Compound 28]
19.85 | 0.66 | 0.44 | 1.57 | 5.90 | 0.54 | 0.17 | 5.4 | 1.17 | 2.37 | COCCP(CCOC)CCP(CCOC)CCOC [Compound 2]
15.4 | 0.41 | 0.41 | 0.98 | 5.80 | 1.02 | 0.05 | 0.7 | 0.39 | 1.54 | COCC(C)CP(CCP(CC(C)COC)CC(C)COC)CC(C)COC (centres unmarked) [Compound 14]
11.4 | 0.79 | 1.01 | 0.58 | 19.2 | 1.58 | 0.54 | 4.69 | 0.96 | 7.71 | COC(C)(C)CCP(CCP(CCC(C)(C)OC)CCC(C)(C)OC)CCC(C)(C)OC [Compound 16]
9.45 | 0.31 | 1.27 | 0.57 | 20.3 | 1.93 | 0.62 | 5.70 | 0.75 | 12.0 | COC(C)CP(CCP(CC(C)OC)CC(C)OC)CC(C)OC (centres unmarked) [Compound 11]
